Three molecules from article PMC10498667 (Chemical Science, 2023) can be followed below.

Common to all, as to assay type: biochemical
The target of test [1] is T1, Electric eel acetylcholinesterase (eeAChE) (Electrophorus electricus, UniProt O42275).
T1 construct: purchased Invitrogen (AChE assay kit)
The test is described as follows: Fluorometric AChE activity assay. An excerpt: Inhibiting the activity of AChE can maintain a proper level of ACh under dysregulated cholinergic conditions.[10,11] Thus, the inhibitory capability of flavonoids against AChE was investigated by a previously reported fluorescent AChE assay with slight modifications.[60] […] The inclusion of three hydroxyl groups on the A ring is critical for controlling the catalytic activity of AChE, as previously reported,[49] whereas the incorporation of a chloro substituent, with three hydroxyl groups, and methoxy moieties instead of hydroxyl groups on the A ring can decrease such inhibitory activity. Flavonoids 2, 3, and 1b over 1 illustrates the importance of the position of hydroxyl groups on the A ring and the isoflavone variation in directing the flavonoids' ability to inhibit the activity of AChE. […]
All experiments were performed in triplicate.
AChE Activity Assay. The AChE inhibitory activity of flavonoids was measured by a fluorometric AChE assay kit (Invitrogen) following the manufacturer ’s protocol with slight modifications.
Electric eel acetylcholinesterase (eeAChE) was dissolved and diluted with a working solution. The eeAChE solution (50 µL) was added into a 96-well plate. Various concentrations of flavonoids were then introduced into the 96-well plate. The final concentrations of flavonoids were as follow: […]
µM). After shaking, the mixture of eeAChE and flavonoids was pre-incubated for 15 min. A reaction mixture containing acetylcholine, an AChE probe, and AbRedTM was added into the 96-well plate to initiate the reaction. The AChE activity was calculated based on the fluorescence intensity (lex/lem = 571/585 nm) of the wells that was detected after 15 min incubation. Data were normalized to the control (no inhibitor). All experiments were performed in triplicate. […]
For the disaggregation studies, Ab (25 µM) was incubated with and without CuCl2 or ZnCl2 (25 µM) for 24 h at 37 °C with constant agitation to generate preformed Ab aggregates. The resultant Ab aggregates were then treated with flavonoids (50 µM) and incubated for additional 24 h with constant agitation. For the additional disaggregation experiments, preformed Ab42 aggregates (25 µM) or Ab42 seeds (10% v/v) with or without metal ions (25 µM for CuCl2 and ZnCl2) were incubated with flavonoids (50 µM) for 24 h with constant agitation. The resultant Ab aggregates were then treated with freshly prepared Ab42

Test [2] has as its target T2, Aβ42 (Homo sapiens, UniProt P05067).
T2 construct: purchased Peptide Institute, Inc. (Osaka, Japan)
The test is described as follows: Aβ42 aggregation inhibition experiments (gel/western blot, TEM). Conditions: flavonoid 50 μM, 24 h. As for the experimental part:
To verify whether a series of nine flavonoids can modulate the aggregation of Aβ with and without metal ions, the molecular weight (MW) distribution and morphology of the resultant Aβ species were determined by gel electrophoresis with western blotting (gel/western blot) using an anti-Aβ antibody (6E10) and transmission electron microscopy (TEM), respectively. Two types of experiments were carried out employing two major Aβ isoforms, i.e., Aβ42 and Aβ40:[25] (i) inhibition studies to identify the effect of 1–5, 1a, 1b, 4a, and 4b on the formation of Aβ aggregates; (ii) disaggregation studies to evaluate if the flavonoids with reactivities towards Aβ aggregation in inhibition studies can disassemble preformed Aβ aggregates or modulate their further aggregation, as illustrated in Fig. 4 and S5–S9. ^† Moreover, the solutions containing the flavonoids and Cu(II) were probed by electronic absorption (Abs) spectroscopy to monitor their metal binding. […] As expected, no Abs change of 1a and 4a composed of methoxy groups on the A ring was detected by addition of Cu(II). […]
Ab Aggregation Experiments. Ab was dissolved in ammonium hydroxide [1% w/w NH4OH (aq)] and the resulting solution was aliquoted, lyophilized overnight, and stored at –80 °C. A stock solution of Ab was then prepared by dissolving the lyophilized peptide with NH4OH (1% w/w, aq; 10 µL) and diluting with ddH2O. All Ab samples were prepared following previously reported procedures.21,22 The concentration of the peptide solution was determined by measuring its […]
solution (20 mM HEPES, pH 7.4, 150 mM NaCl) was used for preparing Ab samples. For the inhibition studies, flavonoids (final concentration, 50 µM; 1% v/v DMSO) were added to the samples of Ab (25 µM) in the absence and presence of CuCl2 or ZnCl2 (25 µM) followed by incubation for 24 h at 37 °C with constant agitation. For the disaggregation studies, Ab (25 µM) was incubated with and without CuCl2 or ZnCl2 (25 µM) for 24 h at 37 °C with constant agitation to generate preformed Ab aggregates. The resultant Ab aggregates were then treated with flavonoids (50 µM) and incubated for additional 24 h with constant agitation. For the additional disaggregation experiments, preformed Ab42 aggregates (25 µM) or Ab42 seeds (10% v/v) with or without metal ions (25 µM for CuCl2 and ZnCl2) were incubated with flavonoids (50 µM) for 24 h with constant agitation. The resultant Ab aggregates were then treated with freshly prepared Ab42 […]
(25 µM) and incubated for additional 24 h with constant agitation.
Gel/Western Blot. The resultant Ab species from the aggregation experiments were analyzed by gel/Western blot using an anti-Ab antibody (6E10, Covance, Princeton, NJ, USA).21,22 Each sample (10 µL) was separated on a 10–20% tricine gel (Invitrogen). Following separation, the proteins were transferred onto nitrocellulose membranes and blocked with bovine serum albumin (BSA, 3% w/v; Sigma-Aldrich) in Tris-buffered saline (TBS) containing 0.1% v/v Tween-20 (Sigma-Aldrich) (TBS-T) for 4 h at room temperature or overnight at 4 °C. The membranes were incubated with 6E10 (1:2,000) in the solution of BSA (2% w/v in TBS-T) for 4 h at room temperature. […] A homemade ECL kit21–23 was used to visualize gel/Western blots on a ChemiDoc MP Imaging System (Bio-Rad).
TEM. Samples for TEM were prepared following previously reported methods.22,24 Glow-discharged grids (Formvar/Carbon 300-mesh; Electron Microscopy Sciences, Hatfield, PA, USA) were treated with Ab samples (25 µM; 7.5 µL) for 2 min at room temperature. Excess sample was removed using filter paper followed by washing with ddH2O (3x). Each grid incubated with uranyl […]
In general terms: A western blot detects proteins with antibodies after separation by electrophoresis.

Test [3] deals with T2, Aβ42. The test is described as follows: Dot blot assay with anti-oligomer (A11) and anti-fibril (OC) antibodies. The settings on record: flavonoid 200 μM, up to 24 h. An excerpt:
Moreover, to investigate the effects of the flavonoids on the oligomerization and fibrilization of metal-free Aβ42 and metal–Aβ42, we performed the dot blot assay employing anti-oligomer (A11) and anti-fibril (OC) antibodies,[23] as illustrated in Fig. S12. ^† It should be noted that the thioflavin-T (ThT) assay utilized for monitoring the formation of β-sheet-rich aggregates cannot be carried out under our experimental conditions since the absorption windows of 4, 5, and 4b interfere with the excitation and emission wavelengths of ThT (Fig. S13 ^†). […]
Dot Blot Assay. The samples containing Ab42 (100 µM) with or without CuCl2 or ZnCl2 (100 µM) in the absence and presence of flavonoids (200 µM; 1% v/v DMSO) were prepared in 20 mM HEPES, pH 7.4, 150 mM NaCl and incubated for various time points (0, 1, 2, 3, 4, 6, 12, and 24 h). […] The membrane was incubated with a primary antibody [i.e., 6E1026 for Ab species (1:2,000), A1126 for Ab oligomers (1:1,000; Invitrogen, Carlsbad, CA, USA), or OC26 for Ab fibrils (1:2,000; Merch Millipore, Billerica, MA, USA)] in the solution of BSA (2% w/v in TBS-T) for 4 h at room temperature. […] A homemade ECL kit21–23 was used to visualize the results on a ChemiDoc MP Imaging System.
The intensity observed from A11- or OC-detectable Ab species was quantified, relative to that detected from 6E10, by the ImageJ software. […]

Setting [4] is: Zn(II)–Aβ42, Aβ 25 μM, Zn(II) 25 μM.
[5] abbreviates: Cu(II)–Aβ42 or Zn(II)–Aβ42 100 μM.

pIC50: −log10 of the molar value. Read-outs that look alike come from different tables or passages of the source.

T2 sequence (P05067 672-713 limits assumed): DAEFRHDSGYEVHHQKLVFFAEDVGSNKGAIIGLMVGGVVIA
T1 sequence (O42275 24-633): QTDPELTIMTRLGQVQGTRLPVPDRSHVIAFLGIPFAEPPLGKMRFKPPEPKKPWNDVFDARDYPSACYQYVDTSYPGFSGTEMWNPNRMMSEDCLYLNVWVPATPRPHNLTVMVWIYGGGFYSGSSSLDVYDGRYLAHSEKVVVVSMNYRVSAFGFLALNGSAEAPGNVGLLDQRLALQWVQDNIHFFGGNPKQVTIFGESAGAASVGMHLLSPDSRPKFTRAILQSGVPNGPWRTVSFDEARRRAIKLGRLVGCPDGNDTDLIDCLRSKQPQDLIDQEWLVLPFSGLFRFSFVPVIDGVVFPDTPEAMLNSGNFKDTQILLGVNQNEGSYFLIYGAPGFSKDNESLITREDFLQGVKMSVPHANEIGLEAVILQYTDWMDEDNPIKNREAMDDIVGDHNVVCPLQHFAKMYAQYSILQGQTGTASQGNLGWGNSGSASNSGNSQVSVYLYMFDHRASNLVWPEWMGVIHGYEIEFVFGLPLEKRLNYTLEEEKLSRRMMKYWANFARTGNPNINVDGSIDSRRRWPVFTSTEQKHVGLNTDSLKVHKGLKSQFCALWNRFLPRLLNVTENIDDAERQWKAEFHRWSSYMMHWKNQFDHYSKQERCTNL

In the case of `COc1cc(OC)c2c(=O)cc(-c3ccccc3)oc2c1` [1a, 5,7-dimethoxyflavone], in test [1] (fluorometric assay, eeAChE), the “inhibitory activity against AChE (IC50 could not be obtained)” value is given as “negligible inhibitory activity”. The “morphology of resultant aggregates (TEM)” value is listed as “did not indicate any noticeable morphological changes” at Aβ42 [2] (Cu(II)–Aβ42), “did not indicate any noticeable morphological changes” on Aβ42 [2] (Zn(II)–Aβ42) and “little or no morphological alteration” on Aβ42 [2] (metal-free Aβ42). Also, the “MW distribution of resultant species (gel/western blot)” value (“MW distribution … (gel/western blot)” below) at Aβ42 [2] (setting [4]) is on record as “a significant change in the MW distribution was not indicated”; at Aβ42 [2] (metal-free Aβ42 25 μM, 37 °C), “could not change the size distribution”. Moreover, the “A11- and OC-detectable signals (oligomers and fibrils)” value (from here on “A11- and OC-detectable signals”) at Aβ42 [3] (setting [5]) and at Aβ42 [3] (metal-free Aβ42 100 μM) was “not significantly varied” throughout.
One may read the pIC50 as −log10 of the IC50, conventionally taken in molar units. As for `O=c1c(-c2ccccc2)coc2cc(O)cc(O)c12` [1b, 5,7-dihydroxyisoflavone], the pIC50 in test [1] is 4.93. For the same molecule, the “morphology of resultant aggregates (TEM)” value on Aβ42 [2] (Cu(II)–Aβ42) is listed as “did not indicate any noticeable morphological changes”; on Aβ42 [2] (Zn(II)–Aβ42), “did not indicate any noticeable morphological changes”; at Aβ42 [2] (metal-free Aβ42) it was “little or no morphological alteration”. The “MW distribution … (gel/western blot)” value on Aβ42 [2] (setting [4]) is reported as “a significant change in the MW distribution was not indicated”; on Aβ42 [2] (metal-free Aβ42 25 μM, 37 °C), “could not change the size distribution”. For the same molecule, the “A11- and OC-detectable signals” value on Aβ42 [3] (setting [5]) and on Aβ42 [3] (metal-free Aβ42 100 μM) was “not significantly varied” throughout.
With `COc1cc2oc(-c3ccccc3)cc(=O)c2c(OC)c1OC` [4a, 5,6,7-trimethoxyflavone], the pIC50 in test [1] (fluorometric assay, eeAChE, read-out: IC50 for AChE inhibition) was 4.28. Further, the “morphology of resultant aggregates (TEM)” value at Aβ42 [2] (Cu(II)–Aβ42) is listed as “did not indicate any noticeable morphological changes”; on Aβ42 [2] (Zn(II)–Aβ42) it was “did not indicate any noticeable morphological changes”; at Aβ42 [2] (metal-free Aβ42) it was “little or no morphological alteration”. Besides, the “MW distribution … (gel/western blot)” value on Aβ42 [2] (setting [4]) is “a significant change in the MW distribution was not indicated”; at Aβ42 [2] (metal-free Aβ42 25 μM, 37 °C) it was “could not change the size distribution”. Also, the “A11- and OC-detectable signals” value at Aβ42 [3] (setting [5]) and on Aβ42 [3] (metal-free Aβ42 100 μM) was “not significantly varied” each time.
